# Measurements: patent US6828332B1, “Piperidine derivatives as reuptake inhibitors” (Eli Lilly and Company, priority 1999, dated 2004)
# Where a name gives a salt, the structure may show the parent alone.
row,melting point [°C],SMILES
1,164 to 169,O=C(C1CCCCC1)C(CCN1CC=C(c2ccc3ccsc3c2)CC1)c1ccccn1 (centres unmarked) (as salt: oxalate)
2,194 to 196,O=C(C1CCCCC1)C(CCN1CC=C(c2ccc3sccc3c2)CC1)c1ccccn1 (centres unmarked) (as salt: oxalate)
3,228 to 230,O=C(C1CCCCC1)C(CCN1CC=C(c2cc3ccccc3s2)CC1)c1ccccn1 (centres unmarked) (as salt: oxalate)
4,94 to 98,OC(C1CCCCC1)C(CCN1CC=C(c2ccc3ccsc3c2)CC1)c1ccccn1 (centres unmarked) (as salt: oxalate)
5,208 to 210,O=C(C1CCCCC1)C(CCN1CC=C(c2csc3ccccc23)CC1)c1ccccn1 (centres unmarked) (as salt: oxalate)
6,100 to 107,OC(C1CCCCC1)C(CCN1CC=C(c2csc3ccccc23)CC1)c1ccccn1 (centres unmarked) (as salt: oxalate)
7,190 to 192,"OC(C1CCCCC1)C(CCN1CC=C(c2ccc3sccc3c2)CC1)c1ccccn1 (single isomer, unassigned) (as salt: oxalate)"
8,210 to 212,"OC(C1CCCCC1)C(CCN1CC=C(c2cc3ccccc3s2)CC1)c1ccccn1 (single isomer, unassigned) (as salt: oxalate)"
